Data as given in patent US20130274174A1, “THERAPEUTIC COMBINATION OF DAPTOMYCIN AND PROTEIN SYNTHESIS INHIBITOR ANTIBIOTIC, AND METHODS OF USE” (priority 2011, published 2013).
≈ marks a conversion by molar mass, not a printed value. Entries after “also recorded” stand apart in the source; their conditions may differ. Where two headings read alike, the source gives them in different places.

Legend:
[1] = tested on: Staphylococcus aureus 100 (ATCC 29213); assay: FIC checkerboard broth microdilution, control combinations; type: cell-based; conditions: ATCC29213, agent alone, repeated determinations by date
Description: Test articles of stock solutions of daptomycin (Cubist, lot MCB2007) and TR-700 were prepared at 40 times the final target concentration in DMSO:water (1:1). DMSO was added first, the solutions were allowed to stand for 60 minutes and then the water was added. […] The final DMSO concentration was 2.5%. The final drug concentrations in the FIC assay plates were set to bracket the MIC value of each test article for each test organism, unless the strain was totally resistant to the test article.
The test organisms were originally received from clinical sources, or from the American Type Culture Collection. […] Aliquots were then frozen at −80° C.
The broth was prepared at 1.05× normal weight/volume to offset the 5% volume of the drugs in the final test plates.
Antimicrob. Agents Chemother.
These plates were used to prepare the drug “mother plates” which provided the serial drug dilutions for the drug combination plates.
The “daughter plates” were loaded with 180 μL of test medium using the Multidrop 384. Then, the Multimek 96 was used to transfer 10 μL of drug solution from each well of the drug combination mother plate to each corresponding well of the daughter plate in a single step.

S. aureus MW2 (NRS123) = assay: microbe, parasite or virus in culture; type: cell-based, Staphylococcus aureus; conditions: for MIC: Staphylococcus aureus
Description: S. aureus strains MW2 (NARSA collection clinical MRSA isolate, NRS123) and ATCC 33591 (MRSA strain from the American Type Culture Collection) were cultured on Mueller-Hinton II cation adjusted (MHA) medium in 90×90 mm square petri dishes. MHA containing ¼ of the MIC value of TR-700, TR-705, LZD, TIA, CLI, TET, or VAN, TMP/SMX throughout the plate and a continuous linear gradient of DAP across the plate was used to passage MW2. ATCC 33591 was passaged with ¼ of the MIC of a subset of these drugs (TR-700, TMP/SMX, and VAN). A DAP-only control passage group was included for both strains. DAP gradients were created by pouring two layers of media as previously described (Bryson, V., et al. 1952. Microbial selection. Science 116:45-51; Locke, J. B., et al., 2009. Antimicrob. Agents Chemother. 53:5265-5274). Following each passage the leading edge of growth (i.e., most resistant cells) was resuspended in phosphate buffered saline (PBS) to an absorbance of 0.30 OD600 and a 100 μl aliquot containing ˜3.0×10^7 CFU (colony-forming units) was spread on to the proceeding passage plate. The starting maximal DAP concentration was 2 μg/ml and was increased in two-fold increments when the leading edge of growth surpassed the half way point on the plate. A glycerol stock was made from the total cell population for each culture condition for each passage. Thirty serial passages were completed for each treatment group.

S. aureus [2] = conditions: co-selection with a subinhibitory concentration; Berti et al. 2012; cited from earlier work
S. aureus [3] = conditions: Locke et al. 2009; cited from earlier work

`O=C(O)[C@H]1/C(=C/CO)O[C@@H]2CC(=O)N21` [Clavulanate] gave an MIC [1] of 16 µg/mL.
In the case of `CC(=O)NC[C@H]1CN(c2ccc(N3CCOCC3)c(F)c2)C(=O)O1` [LZD, linezolid], the MIC (S. aureus MW2 (NRS123); NRS123, passage 0, NRS123 WT) is reported as 2 µg/mL (≈ 5.93 µM), the MIC (S. aureus MW2 (NRS123); NRS123, passage 5, selection group DAP) is reported as 2 µg/mL (≈ 5.93 µM) and the MIC (S. aureus MW2 (NRS123); NRS123, passage 5, selection group DAP + CLI) is reported as 2 µg/mL. It also gave an MIC (S. aureus MW2 (NRS123); NRS123, passage 5, selection group DAP + LZD) of 2 µg/mL, an MIC (S. aureus MW2 (NRS123); NRS123, passage 5, selection group DAP + TET) of 2 µg/mL and an MIC (S. aureus MW2 (NRS123); NRS123, passage 5, selection group DAP + TIA) of 2 µg/mL. It also gave an MIC (S. aureus MW2 (NRS123); NRS123, passage 5, selection group DAP + TMP/SMX) of 1 µg/mL, an MIC (S. aureus MW2 (NRS123); NRS123, passage 5, selection group DAP + TR-700) of 2 µg/mL and an MIC (S. aureus MW2 (NRS123); NRS123, passage 5, selection group DAP + TR-705) of 2 µg/mL. It also gave an MIC (S. aureus MW2 (NRS123); NRS123, passage 5, selection group DAP + VAN) of 1 µg/mL, an MIC (S. aureus MW2 (NRS123); NRS123, passage 10, selection group DAP) of 2 µg/mL (≈ 5.93 µM) and an MIC (S. aureus MW2 (NRS123); NRS123, passage 10, selection group DAP + CLI) of 2 µg/mL. It also gave an MIC (S. aureus MW2 (NRS123); NRS123, passage 10, selection group DAP + LZD) of 2 µg/mL, an MIC (S. aureus MW2 (NRS123); NRS123, passage 10, selection group DAP + TET) of 2 µg/mL and an MIC (S. aureus MW2 (NRS123); NRS123, passage 10, selection group DAP + TIA) of 2 µg/mL. It also gave an MIC (S. aureus MW2 (NRS123); NRS123, passage 10, selection group DAP + TMP/SMX) of 2 µg/mL, an MIC (S. aureus MW2 (NRS123); NRS123, passage 10, selection group DAP + TR-700) of 2 µg/mL and an MIC (S. aureus MW2 (NRS123); NRS123, passage 10, selection group DAP + TR-705) of 2 µg/mL. For the same compound, the MIC (S. aureus MW2 (NRS123); NRS123, passage 10, selection group DAP + VAN) was 1 µg/mL, the MIC (S. aureus MW2 (NRS123); NRS123, passage 15, selection group DAP) was 1 µg/mL (≈ 2.96 µM) and the MIC (S. aureus MW2 (NRS123); NRS123, passage 15, selection group DAP + CLI) was 2 µg/mL. The MIC (S. aureus MW2 (NRS123); NRS123, passage 15, selection group DAP + LZD) was 2 µg/mL, the MIC (S. aureus MW2 (NRS123); NRS123, passage 15, selection group DAP + TET) was 1 µg/mL and the MIC (S. aureus MW2 (NRS123); NRS123, passage 15, selection group DAP + TIA) was 2 µg/mL. For the same compound, the MIC (S. aureus MW2 (NRS123); NRS123, passage 15, selection group DAP + TMP/SMX) was 2 µg/mL, the MIC (S. aureus MW2 (NRS123); NRS123, passage 15, selection group DAP + TR-700) was 2 µg/mL and the MIC (S. aureus MW2 (NRS123); NRS123, passage 15, selection group DAP + TR-705) was 2 µg/mL. The MIC (S. aureus MW2 (NRS123); NRS123, passage 15, selection group DAP + VAN) was 1 µg/mL, the MIC (S. aureus MW2 (NRS123); NRS123, passage 20, selection group DAP) was 2 µg/mL (≈ 5.93 µM) and the MIC (S. aureus MW2 (NRS123); NRS123, passage 20, selection group DAP + CLI) was 2 µg/mL. The MIC (S. aureus MW2 (NRS123); NRS123, passage 20, selection group DAP + LZD) was 2 µg/mL, the MIC (S. aureus MW2 (NRS123); NRS123, passage 20, selection group DAP + TET) was 1 µg/mL and the MIC (S. aureus MW2 (NRS123); NRS123, passage 20, selection group DAP + TIA) was 2 µg/mL. It also gave an MIC (S. aureus MW2 (NRS123); NRS123, passage 20, selection group DAP + TMP/SMX) of 2 µg/mL, an MIC (S. aureus MW2 (NRS123); NRS123, passage 20, selection group DAP + TR-700) of 2 µg/mL and an MIC (S. aureus MW2 (NRS123); NRS123, passage 20, selection group DAP + TR-705) of 2 µg/mL. The MIC (S. aureus MW2 (NRS123); NRS123, passage 20, selection group DAP + VAN) was 1 µg/mL, the MIC (S. aureus MW2 (NRS123); NRS123, passage 25, selection group DAP) was 1 µg/mL (≈ 2.96 µM) and the MIC (S. aureus MW2 (NRS123); NRS123, passage 25, selection group DAP + CLI) was 2 µg/mL. For the same compound, the MIC (S. aureus MW2 (NRS123); NRS123, passage 25, selection group DAP + LZD) was 1 µg/mL, the MIC (S. aureus MW2 (NRS123); NRS123, passage 25, selection group DAP + TET) was 1 µg/mL and the MIC (S. aureus MW2 (NRS123); NRS123, passage 25, selection group DAP + TIA) was 2 µg/mL. It also gave an MIC (S. aureus MW2 (NRS123); NRS123, passage 25, selection group DAP + TMP/SMX) of 2 µg/mL, an MIC (S. aureus MW2 (NRS123); NRS123, passage 25, selection group DAP + TR-700) of 2 µg/mL and an MIC (S. aureus MW2 (NRS123); NRS123, passage 25, selection group DAP + TR-705) of 2 µg/mL. The MIC (S. aureus MW2 (NRS123); NRS123, passage 25, selection group DAP + VAN) was 1 µg/mL, the MIC (S. aureus MW2 (NRS123); NRS123, passage 30, selection group DAP) was 1 µg/mL (≈ 2.96 µM) and the MIC (S. aureus MW2 (NRS123); NRS123, passage 30, selection group DAP + CLI) was 2 µg/mL. For the same compound, the MIC (S. aureus MW2 (NRS123); NRS123, passage 30, selection group DAP + LZD) was 2 µg/mL, the MIC (S. aureus MW2 (NRS123); NRS123, passage 30, selection group DAP + TET) was 1 µg/mL and the MIC (S. aureus MW2 (NRS123); NRS123, passage 30, selection group DAP + TIA) was 2 µg/mL. The MIC (S. aureus MW2 (NRS123); NRS123, passage 30, selection group DAP + TMP/SMX) was 2 µg/mL, the MIC (S. aureus MW2 (NRS123); NRS123, passage 30, selection group DAP + TR-700) was 2 µg/mL and the MIC (S. aureus MW2 (NRS123); NRS123, passage 30, selection group DAP + TR-705) was 2 µg/mL. The MIC (S. aureus MW2 (NRS123); NRS123, passage 30, selection group DAP + VAN) was 2 µg/mL, the MIC (S. aureus MW2 (NRS123); NRS123, read-out: DAP MIC by the end of the experiment (selection of DAP^ns strains), MW2, passaged with DAP alone or with co-selecting agent at ¼ MIC, CLSI breakpoint) was over 1 µg/mL and the “effect on preventing the emergence of DAP^ns” value (S. aureus MW2 (NRS123); co-selection at ¼ MIC, VAN: both backgrounds) was “did not prevent the emergence of DAP non-susceptibility; also recorded: no effect on preventing DAP^ns”. For the same compound, the “susceptibility to the co-selecting agent in its co-selection group” value (S. aureus MW2 (NRS123); over the course of 30 passages) was “no increases in LZD MIC values over WT were observed”, the “effect on preventing the emergence of DAP^ns S. aureus” value (S. aureus [2]) was “did not have any effect on preventing the emergence of DAP^ns S. aureus” and the “S. aureus mutation frequency higher than for TR-700” value (S. aureus [3]) was over 10 fold.
